molecular target: T1, GLP-1R (Homo sapiens, UniProt P43220); test: EC20 GLP-1(9-36) PAM cAMP assay: dose response of compound in the presence of fixed concentration of GLP-1(9-36); format: cell-based; conditions: GLP-1R CRE-bla CHO-K1 cells, compound dose response with fixed concentration of GLP-1(9-36), read-out: EC20 GLP-1(9-36) PAM EC50
T1 construct: host or cells: GLP-1R CRE-bla CHO-K1 cells
Procedure, shortened: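 Positive allosteric modulation read as cAMP accumulation: compound titrations (12 points) combined with an EC20 level of GLP-1(9-36) on CHO-K1 GLP-1R CRE-bla cells, IBMX present, 30 min, 37 °C, pH 7.4 buffer. Luminescence converted to cAMP via standards; non-linear fit gave EC50 and Emax.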

T1 sequence (P43220 24-463): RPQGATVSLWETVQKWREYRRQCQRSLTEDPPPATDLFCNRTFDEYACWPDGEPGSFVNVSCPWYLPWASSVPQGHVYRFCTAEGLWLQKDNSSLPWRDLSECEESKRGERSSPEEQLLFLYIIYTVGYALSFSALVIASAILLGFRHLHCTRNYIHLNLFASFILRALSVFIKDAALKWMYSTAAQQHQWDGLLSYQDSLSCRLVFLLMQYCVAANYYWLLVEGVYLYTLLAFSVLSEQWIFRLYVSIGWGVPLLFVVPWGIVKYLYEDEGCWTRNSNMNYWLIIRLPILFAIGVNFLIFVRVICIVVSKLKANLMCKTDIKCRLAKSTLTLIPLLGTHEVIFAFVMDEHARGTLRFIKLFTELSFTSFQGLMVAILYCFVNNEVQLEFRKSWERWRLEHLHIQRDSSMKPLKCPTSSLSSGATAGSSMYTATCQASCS
T1 sequence (P01275 100-127 partner limits assumed): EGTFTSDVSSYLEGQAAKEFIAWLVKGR

| EC50 | SMILES |
| --- | --- |
| 800 to 2500 nM | CC[C@H]1CC[C@H](c2ccc(-c3cnc(-c4ccc(C[C@H](NC(=O)c5ccc(C)cc5)C(=O)O)cc4)nc3)cc2)CC1 [Compound 1371] |
| < 800 nM | CC(C)(C)c1ccc(C(=O)N[C@@H](Cc2ccc(-c3ncc(N4CCC(C5CCCCC5)CC4)cn3)cc2)C(=O)N2CC(C(=O)O)C2)s1 [Compound 1431] |
| < 800 nM | CC(C)(C)c1ccc(C(=O)NC(Cc2ccc(-c3ncc(N4CCC5CCCCC5C4)cn3)cc2)C(=O)N2CC(C(=O)O)C2)s1 (stereo not drawn) [Compound 1421] |
| 2500 to 5000 nM | CCCOc1ccc(-c2ccc(-c3cnc(-c4ccc(C[C@H](NC(=O)c5ccc(C(C)(C)C)s5)C(=O)O)cc4)nc3)c(F)c2)cc1 [Compound 1360] |
| < 800 nM | CCCCc1ccc(C2CCN(c3cnc(-c4ccc(C[C@H](NC(=O)c5ccc(C(C)(C)C)s5)C(=O)N5CC(C(=O)O)C5)cc4)nc3)CC2)cc1 [Compound 1412, (S)-1-(2-(5-(tert-butyl)thiophene-2-carboxamido)-3-(4-(5-(4-(4-butylphenyl)-piperidin-1-yl)pyrimidin-2-yl)phenyl)propanoyl)azetidine-3-carboxylic acid] |
| < 800 nM | CCC[C@H]1CC[C@H](C2CCN(c3cnc(-c4ccc(C[C@H](NC(=O)c5ccc(C(C)(C)C)s5)C(=O)N[C@H](C(=O)O)[C@@H](C)O)cc4)nc3)CC2)CC1 [Compound 1469] |
| < 800 nM | C[C@@H](NC(=O)[C@H](Cc1ccc(-c2ncc(-c3ccc(-c4ccc(F)cc4)cc3)cn2)cc1)NC(=O)c1ccc(C(C)(C)C)s1)C(=O)O [Compound 1305] |
| < 800 nM | CCC[C@H]1CC[C@H](C2CCN(c3cnc(-c4ccc(C[C@H](NC(=O)c5cnn(C(C)(C)C)c5)C(=O)N5CC(C(=O)O)C5)cc4)nc3)CC2)CC1 [Compound 1516] |
| 5000 to 10000 nM | CC[C@H]1CC[C@H](c2ccc(-c3cnc(-c4ccc(C[C@H](NC(=O)c5ccc(CC(C)C)s5)C(=O)O)cc4)nc3)cc2)CC1 [Compound 1381] |
| < 800 nM | CC[C@H]1CC[C@H](c2ccc(-c3cnc(-c4ccc(C[C@H](NC(=O)c5ccc(C(C)(C)C)s5)C(=O)N[C@H](C(=O)O)[C@@H](C)O)cc4)nc3)cc2)CC1 [Compound 1327] |
| < 800 nM | CC(C)(C)c1ccc(C(=O)N[C@@H](Cc2ccc(-c3ncc(N4CCC(c5ccc(C(F)(F)F)cc5)CC4)cn3)cc2)C(=O)N2CC(C(=O)O)C2)s1 [Compound 1481] |
| 800 to 2500 nM | CCCCCCCOc1ccc(-c2nnc(-c3ccc(C[C@@H](NC(=O)c4ccc(C(C)(C)C)cc4)C(=O)N4CC(C(=O)O)C4)cc3F)s2)cc1 [Compound 1553] |
| < 800 nM | CCC[C@H]1CC[C@H](C2CCN(c3cnc(-c4ccc(C[C@H](NC(=O)c5ccc(C(C)(C)C)s5)C(=O)N5CCCC[C@H]5C(=O)O)cc4)nc3)CC2)CC1 [Compound 1455] |
| < 800 nM | CCC[C@H]1CC[C@H](C2CCN(c3cnc(-c4ccc(CC(NC(=O)c5ccc(C(C)(C)C)s5)C(=O)NS(=O)(=O)CC5CC5)cc4)nc3)CC2)CC1 (stereo partly drawn) [Compound 1542] |
| < 800 nM | CCC[C@H]1CC[C@H](C2CCN(c3cnc(-c4ccc(C[C@H](NC(=O)c5ccc(C(C)C)s5)C(=O)N5CC(C(=O)O)C5)cc4)nc3)CC2)CC1 [Compound 1534] |
| 800 to 2500 nM | CCCC1CCC(C2CCN(c3cnc(-c4ccc(C[C@H](NC(=O)c5ccc(C(C)(C)C)s5)C(=O)N5CC(C(=O)O)C5)cc4)nc3)C(=O)C2)CC1 (stereo partly drawn) [Compound 1496] |
| < 800 nM | CC(C)Cc1ccc(-c2ccc(-c3cnc(-c4ccc(C[C@H](NC(=O)c5ccc(C(C)(C)C)s5)C(=O)N5CC(C(=O)O)C5)cc4)nc3)c(F)c2)cc1 [Compound 1221] |

same assay, conditions: dose response of compound in presence of fixed concentration of GLP-1(9-36), GLP-1R CRE-bla CHO-K1 cells, read-out: EC20 GLP-1(9-36) PAM EC50

| SMILES | EC50 |
| --- | --- |
| CCCCCCCOc1ccc(-c2cnc(-c3ccc(C[C@H](NC(=O)c4ccc(C(C)(C)C)s4)C(=O)NC4CCCC(C(=O)O)C4)cc3)nc2)cc1 (stereo partly drawn) [Compound 535] | 5000 to 10000 nM |
| CCCCCCCOc1ccc(-c2cnc(-c3ccc(C[C@H](NC(=O)c4ccc(C(C)(C)C)cc4)C(=O)N[C@@H](CC(=O)O)C(=O)N4CCOCC4)cc3)nc2)cc1 [Compound 507] | 800 to 2500 nM |
| CCCCCCCOc1ccc(-c2cnc(-c3ccc(C[C@H](NC(=O)c4ccc(C(F)(F)F)s4)C(=O)N[C@H](C)C(=O)O)cc3)nc2)cc1 [Compound 815] | < 800 nM |
| CCCCCCOc1ccc(-c2cnc(-c3ccc(C[C@H](NC(=O)c4ccc(C(C)(C)C)cc4)C(=O)NCCC(=O)O)cc3)nc2)cc1 [Compound 490] | 800 to 2500 nM |
| CCCCCCCOc1ccc(-c2cnc(-c3ccc(CC(NC(=O)c4ccc(C(C)(C)C)s4)C(=O)N[C@@H](Cc4ccccc4)C(=O)O)cc3)nc2)cc1 (stereo partly drawn) [Compound 415] | < 800 nM |
| CCCCCCCOc1ccc(-c2cnc(-c3ccc(C[C@H](NC(=O)c4ccc(C(C)(C)C)s4)C(=O)NCCN(C)C)cc3)nc2)cc1 [Compound 385] | 5000 to 10000 nM |
| CCCCCCCOc1ccc(-c2cnc(-c3ccc(C[C@H](NC(=O)c4ccc(C(C)(C)C)s4)C(=O)NC(C(=O)O)C(OC)c4ccccc4)cc3)nc2)cc1 (stereo partly drawn) [Compound 890] | 800 to 2500 nM |
| CCCCCCCOc1ccc(-c2cnc(-c3ccc(C[C@H](NC(=O)c4ccc(C(C)(C)C)s4)C(=O)N[C@@H](CC(=O)Nc4nnn[nH]4)C(=O)O)cc3)nc2)cc1 [Compound 522] | 800 to 2500 nM |
| CCC(C)COc1ccc(-c2cnc(-c3ccc(C[C@H](NC(=O)c4ccc(C(C)(C)C)cc4)C(=O)NCCC(=O)O)cc3)nc2)cc1 (stereo partly drawn) [Compound 473] | 5000 to 10000 nM |
| CCCCOCCOc1ccc(-c2cnc(-c3ccc(C[C@H](NC(=O)c4ccc(C(C)(C)C)cc4)C(=O)NCCC(=O)O)cc3)nc2)cc1 [Compound 457] | 2500 to 5000 nM |
| CCOc1ccc(-c2cnc(-c3ccc(C[C@H](NC(=O)c4ccc(C(C)(C)C)s4)C(=O)N[C@H](C)C(=O)O)cc3)nc2)cc1 [Compound 731] | 2500 to 5000 nM |
| CCCCCCCOc1ccc(-c2cnc(-c3ccc(C[C@H](NC(=O)c4ccc(C(C)(C)C)s4)C(=O)N4C[C@@H](C#N)C[C@H]4C(=O)O)cc3)nc2)cc1 [Compound 640] | < 800 nM |
| CCCCCCCOc1ccc(-c2cnc(-c3ccc(C[C@H](NC(=O)c4ccc(C(C)(C)C)s4)C(=O)N[C@@H](CC(=O)OCc4ccccc4)C(=O)O)cc3)nc2)cc1 [Compound 524, (S)-4-(benzyloxy)-2-((S)-2-(5-(tert-butyl)thiophene-2-carboxamido)-3-(4-(5-(4-(heptyloxy)phenyl)pyrimidin-2-yl)phenyl)propanamido)-4-oxobutanoic acid] | < 800 nM |
| CCCCCCCOc1ccc(-c2cnc(-c3ccc(C[C@H](NC(=O)c4ccc(C(C)(C)C)cc4)C(=O)NCC(C(=O)O)C4CCOCC4)cc3)nc2)cc1 (stereo partly drawn) [Compound 555] | 2500 to 5000 nM |
| CCCCCOc1ccc(-c2cnc(-c3ccc(C[C@H](NC(=O)c4ccc(C(C)(C)C)cc4)C(=O)N[C@H](C)C(=O)O)cc3)nc2)cc1 [Compound 718] | 2500 to 5000 nM |
| CCCCCCCOc1ccc(-c2cnc(-c3ccc(C[C@H](NC(=O)c4ccc(C(C)(C)C)cc4)C(=O)NC(CC(=O)O)c4cccc(O)c4)cc3)nc2)cc1 (stereo partly drawn) [Compound 538] | 5000 to 10000 nM |
| CCCCCCCOc1ccc(-c2cnc(-c3ccc(C[C@H](NC(=O)c4ccn(C(C)(C)C)c4)C(=O)N[C@H](C)C(=O)O)cc3)nc2)cc1 [Compound 838] | 800 to 2500 nM |
| CCCCCCCOc1ccc(-c2cnc(-c3ccc(C[C@H](NC(=O)c4ccc(C(C)(C)C)cc4)C(=O)NC(CCCC(=O)O)C(=O)O)cc3)nc2)cc1 (stereo partly drawn) [Compound 573] | 800 to 2500 nM |
| CCCCCCCOc1ccc(-c2cnc(-c3ccc(C[C@H](NC(=O)c4ccc(C(C)(C)C)cc4)C(=O)NC(Cc4cscn4)C(=O)O)cc3)nc2)cc1 (stereo partly drawn) [Compound 544] | < 800 nM |
| CCCCCCCOc1ccc(-c2cnc(-c3ccc(C[C@H](NC(=O)c4ccc(C(C)(C)C)s4)C(=O)N[C@H](CN)C(=O)O)cc3)nc2)cc1 [Compound 392] | 2500 to 5000 nM |
| CCCCCCCOc1ccc(-c2cnc(-c3ccc(C[C@H](NC(=O)c4ccc(C(C)(C)C)s4)C(=O)NC(C(=O)O)C(C)c4ccccc4)cc3)nc2)cc1 (stereo partly drawn) [Compound 636] | < 800 nM |
| CCCCCCCOc1ccc(-c2cnc(-c3ccc(C[C@H](NC(=O)c4ccc(C(C)(C)C)s4)C(=O)NC(C(=O)O)C(O)c4cscn4)cc3)nc2)cc1 (stereo partly drawn) [Compound 903] | 5000 to 10000 nM |
| CCCCCCCOc1ccc(-c2cnc(-c3ccc(C[C@H](NC(=O)c4ccc(C(C)(C)C)s4)C(=O)N[C@@H](Cc4cscn4)C(=O)O)cc3)nc2)cc1 [Compound 627] | < 800 nM |
| CCCCCCCOc1ccc(-c2cnc(-c3ccc(C[C@H](NC(=O)c4ccc(C(C)(C)C)cc4)C(=O)NC(CC(=O)O)c4cccnc4)cc3)nc2)cc1 (stereo partly drawn) [Compound 571] | 800 to 2500 nM |

The next lines start with the values.

| EC50 | SMILES |
| --- | --- |
| 2500 to 5000 nM | CCCCCCCOc1ccc(-c2cnc(-c3ccc(C[C@H](NC(=O)c4ccc(C(C)(C)C)c(OC)c4)C(=O)N4CC(C(=O)O)C4)cc3)nc2)cc1 [Compound 1120] |
| < 800 nM | CC(C)(C)c1ccc(C(=O)N[C@@H](Cc2ccc(-c3ncc(-c4ccc(-c5ccc(OC(F)(F)F)cc5)cc4F)cn3)cc2)C(=O)N2CC(C(=O)O)C2)s1 [Compound 1188] |
| 5000 to 10000 nM | CCCCCCCOc1ccc(-c2cnc(-c3ccc(C[C@H](NC(=O)c4ccc(C(C)(C)C)s4)C(=O)N4CCC(C)(N)C4)cc3)nc2)cc1 (stereo partly drawn) [Compound 988] |
| 2500 to 5000 nM | CCCCCCCOc1ccc(-c2cnc(-c3ccc(C[C@H](NC(=O)c4ccc(C(C)(C)C)s4)C(=O)NCCCN4CCOCC4)cc3)nc2)cc1 [Compound 964] |
| 800 to 2500 nM | C[C@@H](NC(=O)[C@H](Cc1ccc(-c2ncc(-c3ccc(N(c4ccccc4)c4ccccc4)cc3)cn2)cc1)NC(=O)c1ccc(C(C)(C)C)s1)C(=O)O [Compound 1015] |
| < 800 nM | CC(C)(C)c1ccc(C(=O)N[C@@H](Cc2ccc(-c3ncc(-c4ccc(C5CCCC5)cc4)cn3)cc2)C(=O)N2CC[C@H](C(=O)O)C2)s1 [Compound 1084] |
| 800 to 2500 nM | CCCCCCCOc1ccc(-c2cnc(-c3ccc(C[C@H](NC(=O)c4ccc(C(C)(C)C)s4)C(=O)NC(C(=O)O)C(O)c4cnccn4)cc3)nc2)cc1 (stereo partly drawn) [Compound 917] |
